Results on 1 compound are retold here after ChEMBL document CHEMBL5543116, “Discovery of DNL343: A Potent, Selective, and Brain-Penetrant eIF2B Activator Designed for the Treatment of Neurodegenerative Diseases” (J Med Chem, 2024).

The subject of data set [1] is Mus musculus. Briefly: Neuroprotective activity against Eif 2bS R191H […] mouse model assessed as reduction in Ddit3 level in brain at 50 mg/kg, po administered for 2 days. In kind it is functional, organism-based. Particulars: time 2.0 day.
Data set [2] deals with Mus musculus. The data set is described as follows: Neuroprotective activity against Eif 2bS R191H […] mouse model assessed as reduction in Atf4 level in brain at 50 mg/kg, po administered for 2 days. Particulars: time 2.0 day. In kind it is functional, organism-based.
For another data set, the system named is H4. Briefly: Neuroprotective activity against NaAsO2-induced human H4 cells expressing GFP TDP43 (86 to 414 residues) assessed as decrease in TDP43 accumulation incubated for 2 hrs by DAPI staining based microscopic analysis. The class given is functional, cell-based. As to conditions: H4, 2 h.
Data set [3] concerns Mus musculus. Briefly: Neuroprotective activity against Eif 2bS R191H […] mouse model assessed as reduction in mthfd2 level in brain at 50 mg/kg, po administered for 2 days. The class given is functional, organism-based. As to conditions: time 2.0 day.
Data set [4] addresses T1, Nuclear receptor subfamily 1 group I member 2 (Homo sapiens, UniProt O75469).
T1 sequence (O75469 whole entry): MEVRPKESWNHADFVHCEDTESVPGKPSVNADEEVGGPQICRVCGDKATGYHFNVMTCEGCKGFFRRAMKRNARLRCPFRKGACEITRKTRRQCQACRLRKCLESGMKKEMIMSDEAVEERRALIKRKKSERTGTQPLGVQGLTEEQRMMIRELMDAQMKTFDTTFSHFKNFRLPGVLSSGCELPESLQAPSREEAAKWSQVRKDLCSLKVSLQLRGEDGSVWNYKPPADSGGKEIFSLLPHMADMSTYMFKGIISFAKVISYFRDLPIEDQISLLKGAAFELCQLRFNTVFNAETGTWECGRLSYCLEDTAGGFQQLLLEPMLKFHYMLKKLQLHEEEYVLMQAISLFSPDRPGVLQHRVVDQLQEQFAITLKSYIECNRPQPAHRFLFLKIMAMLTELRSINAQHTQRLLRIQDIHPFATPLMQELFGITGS
The data set is described as follows: Activation of PXR (unknown origin).

Data set [5] is described as follows: Volume of distribution at steady state in dog at 0.5 mg/kg, iv. In kind it is ADME, organism-based, Canis lupus familiaris. Particulars: in vivo, read-out: Vdss.
Data set [6] is described as follows: Metabolic stability in rat liver microsome assessed as hepatic clearance. The class given is ADME. Particulars: liver microsomes. Background: Microsomes from liver hold many membrane-bound enzymes, among them those of drug oxidation.
Data set [7] concerns Mus musculus. The data set is described as follows: Neuroprotective activity against Eif 2bS R191H […] mouse model assessed as reduction in ppp1r15a level in brain at 50 mg/kg, po administered for 2 days. In kind it is functional, organism-based. As to conditions: time 2.0 day.
Data set [8] relates to Mus musculus. Briefly: Neuroprotective activity against Eif 2bS R191H […] mouse model assessed as reduction in Eif4ebp1 level in brain at 50 mg/kg, po administered for 2 days. In kind it is functional, organism-based. As to conditions: time 2.0 day.
The subject of data set [9] is Mus musculus. The data set is described as follows: Neuroprotective activity against Eif 2bS R191H […] mouse model assessed as reduction in Atf3 level in brain at 50 mg/kg, po administered for 2 days. The class given is functional, organism-based. Particulars: time 2.0 day.
Data set [10] is described as follows: Ratio of unbound drug concentration in rat brain to plasma at 3 mg/kg, po. The class given is ADME, organism-based.
A short description of data set [11]: Half life in cynomolgus monkey at 0.5 mg/kg, iv. In kind it is ADME, organism-based, Macaca fascicularis. Particulars: in vivo.
The nature of data set [12]: Volume of distribution at steady state in rat at 1 mg/kg, iv. As to conditions: in vivo, read-out: Vdss. The class given is ADME, organism-based.
Data set [13] relates to Mus musculus. The data set is described as follows: Neuroprotective activity against Eif 2bS R191H […] mouse model assessed as reduction in Slc1a5 level in brain at 50 mg/kg, po administered for 2 days. As to conditions: time 2.0 day. The class given is functional, organism-based.
The nature of data set [14]: Volume of distribution at steady state in rat at 1 mg/kg, iv by LC-MS/MS analysis. The class given is ADME, organism-based. As to conditions: in vivo, read-out: Vdss.
Data set [15] concerns Mus musculus. Briefly: Neuroprotective activity against Eif 2bS R191H […] mouse model assessed as reduction in Sensn2 level in brain at 50 mg/kg, po administered for 2 days. The class given is functional, organism-based. Particulars: time 2.0 day.
Data set [16] is described as follows: Clearance in cynomolgus monkey at 0.5 mg/kg, iv. In kind it is ADME, organism-based, Macaca fascicularis. As to conditions: in vivo.
The target in data set [17] is T2, Aryl hydrocarbon receptor (Homo sapiens, UniProt P35869).
T2 sequence (P35869 whole entry): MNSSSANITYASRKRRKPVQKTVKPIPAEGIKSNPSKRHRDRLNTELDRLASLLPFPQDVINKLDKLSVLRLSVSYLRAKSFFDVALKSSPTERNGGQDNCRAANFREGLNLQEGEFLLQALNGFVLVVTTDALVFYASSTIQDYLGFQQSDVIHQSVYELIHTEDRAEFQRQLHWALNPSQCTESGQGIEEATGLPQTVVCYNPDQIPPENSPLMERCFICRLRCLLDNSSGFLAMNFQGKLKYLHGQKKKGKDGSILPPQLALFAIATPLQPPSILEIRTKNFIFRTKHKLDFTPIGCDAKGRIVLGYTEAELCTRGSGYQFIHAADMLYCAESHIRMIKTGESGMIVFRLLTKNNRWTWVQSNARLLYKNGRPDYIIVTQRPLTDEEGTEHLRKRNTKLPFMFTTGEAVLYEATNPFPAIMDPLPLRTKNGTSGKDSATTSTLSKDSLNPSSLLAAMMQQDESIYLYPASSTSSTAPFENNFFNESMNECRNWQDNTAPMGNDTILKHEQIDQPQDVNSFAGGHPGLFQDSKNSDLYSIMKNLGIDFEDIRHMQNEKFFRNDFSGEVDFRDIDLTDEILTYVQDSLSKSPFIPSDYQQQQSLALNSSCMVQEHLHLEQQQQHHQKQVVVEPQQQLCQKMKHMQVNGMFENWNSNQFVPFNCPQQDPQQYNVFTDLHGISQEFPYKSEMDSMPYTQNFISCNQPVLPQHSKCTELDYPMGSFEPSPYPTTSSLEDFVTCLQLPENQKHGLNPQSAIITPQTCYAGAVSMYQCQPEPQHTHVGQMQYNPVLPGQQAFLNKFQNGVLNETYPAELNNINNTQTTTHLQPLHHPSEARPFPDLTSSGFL
Briefly: Activation of AHR (unknown origin).

A short description of data set [18]: Ratio of unbound drug concentration in cynomolgus monkey brain to plasma at 0.5 mg/kg, po measured after 6 hrs. The class given is ADME, organism-based, Macaca fascicularis.
In data set [19] the test system is Mus musculus. Briefly: Neuroprotective activity against Eif 2bS R191H […] mouse model assessed as reduction in Sic7a11 level in brain at 50 mg/kg, po administered for 2 days. The class given is functional, organism-based. Particulars: time 2.0 day.
Data set [20] is described as follows: Metabolic stability in rat liver microsome assessed as clearance. Particulars: liver microsomes. In kind it is ADME.
Data set [21] has as its target T3, Nuclear receptor subfamily 1 group I member 3 (Homo sapiens, UniProt Q14994).
T3 sequence (Q14994 whole entry): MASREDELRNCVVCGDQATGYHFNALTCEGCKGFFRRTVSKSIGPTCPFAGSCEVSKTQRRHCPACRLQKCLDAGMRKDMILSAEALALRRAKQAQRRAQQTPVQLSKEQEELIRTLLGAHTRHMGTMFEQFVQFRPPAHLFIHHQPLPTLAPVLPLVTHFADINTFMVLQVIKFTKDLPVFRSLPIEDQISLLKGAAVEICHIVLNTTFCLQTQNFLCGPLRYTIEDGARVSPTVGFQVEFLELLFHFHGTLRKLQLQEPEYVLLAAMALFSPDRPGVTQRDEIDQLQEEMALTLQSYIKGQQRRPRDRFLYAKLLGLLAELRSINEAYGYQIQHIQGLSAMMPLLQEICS
Briefly: Activation of CAR (unknown origin).

Data set [22] is described as follows: Half life in dog at 0.5 mg/kg, iv. In kind it is ADME, organism-based, Canis lupus familiaris. Particulars: in vivo.
For data set [23], the system named is Mus musculus. The data set is described as follows: Neuroprotective activity against Eif 2bS R191H […] mouse model assessed as reduction in Chac1 level in brain at 50 mg/kg, po administered for 2 days. The class given is functional, organism-based. As to conditions: time 2.0 day.

Activity calls are given as the source filed them. The calls are words filed in the database; no cut-off is given here.

With `O=C(COc1ccc(Cl)cc1)NC12CC(c3nnc([C@H]4C[C@@H](OC(F)(F)F)C4)o3)(C1)C2` [EVETIFATOR], the outcome in the data set with Mus musculus [1], with Mus musculus [2], with Mus musculus [3], in the data set on Mus musculus [7], in the data set on Mus musculus [8] and in the data set with Mus musculus [9] was Active. For the same compound, the outcome with Mus musculus [13], in the data set on Mus musculus [15], with Mus musculus [19] and in the data set with Mus musculus [23] was Active. In addition, the IC50 in the data set with H4 was 12.5 nM. Moreover, the Activity entry in [4], in [17] and in data set [21] was “Not Active” in each case. Moreover, the Vd amounted to 2.7 L/kg in data set [5], 0.31 L/kg in data set [12] and 0.31 L/kg in [14]. In addition, the CLhep predicted in data set [6] and in data set [20] was less than 17 mL/min/kg throughout. Further, the figures for the “K(p,uu,brain)” value in data set [10] and in [18] were 0.8 and 0.9, respectively. In addition, the half-life in [11] is 7.6 h; in data set [22] it was 7.4 h. In addition, in [16], the clearance stood at 2.9 mL/min/kg.

For orientation: IC50 means the concentration that inhibits the measured activity by half. The term half-life denotes how long it takes for the measured level to halve. For orientation: clearance means the rate of elimination divided by the concentration.
